Laboratory results reported in ChEMBL document CHEMBL1201862, “PubChem BioAssay data set” (2004).
Activity calls are given as the source filed them.

What was measured:
Vero = experiment: cells; type: functional; details: Chlorocebus sabaeus
Albumin = Albumin (Bos taurus, UniProt P02769); experiment: Counterscreen for inhibitors of T-cell receptor (TCR)-CD3 interaction: Fluorescence-based biochemical high throughput dose response assay to identify inhibitors of T-cell receptor (TCR)-CD3 interaction using a TAMRA-labeled BSA probe.; type: functional
Cysteine protease ATG4B = molecular target: T1, Cysteine protease ATG4B (Homo sapiens, UniProt Q9Y4P1); type: functional;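 further: Fluorescence-based dose-response confirmation assay measuring inhibition of ATG4B activity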
T1 sequence (Q9Y4P1 whole entry): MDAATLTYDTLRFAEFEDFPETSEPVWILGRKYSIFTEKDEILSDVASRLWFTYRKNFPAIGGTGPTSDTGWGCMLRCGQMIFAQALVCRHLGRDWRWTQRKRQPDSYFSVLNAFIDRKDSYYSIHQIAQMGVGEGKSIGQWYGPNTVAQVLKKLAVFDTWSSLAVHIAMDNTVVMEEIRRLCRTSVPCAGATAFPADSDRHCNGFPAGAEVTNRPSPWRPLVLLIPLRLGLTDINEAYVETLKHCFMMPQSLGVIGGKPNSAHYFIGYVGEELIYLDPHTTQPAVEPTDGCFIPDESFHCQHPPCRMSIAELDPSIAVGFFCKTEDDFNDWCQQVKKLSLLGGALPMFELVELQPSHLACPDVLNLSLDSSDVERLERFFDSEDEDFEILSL

Phospholipase A2 = Phospholipase A2 (Homo sapiens, UniProt P04054); type: functional;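 further: confirmatory dose-response counterscreen on phospholipase A2, testing hits that came from an ultra-high-throughput screen for ATG4B inhibitors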
[1] = molecular target: FAD-linked sulfhydryl oxidase ALR (Homo sapiens, UniProt P55789); experiment: ALR-catalysed DTT oxidation blockers – biochemical, H2O2 detection, luminescence, cherry-pick, dose response (AID 493248)
[2] = alpha-synuclein stem-loop luciferase translation blockers – H4 neuroglioma cells, luminescence, confirmation (AID 1988); type: functional, cell-based
HEK293 [3] = experiment: cells; details: Homo sapiens
HEK293 [4] = experiment: cells; details: Homo sapiens; remark: listed apart in the source
[5] = luciferase reporter signal suppression in cells – H4 neuroglioma cells, luminescence, dose response (AID 1990); type: functional, cell-based
[6] = microbe, parasite or virus in culture; type: functional; details: Mycobacterium tuberculosis
[7] = viability loss in THP-1 monocytes – THP-1 cells, cytotoxicity control for Vif-APOBEC3G degradation inhibitor project, dose response (AID 1117359); type: functional; details: THP-1
[8] = HPDE-C7 pancreatic duct cell viability loss – fluorescence, HTS (AID 430); type: functional, cell-based; details: Homo sapiens
[9] = viability loss of HPDE-C7K cells – cell-based, fluorescence, HTS, primary screen (AID 431); type: functional; details: Homo sapiens
Streptokinase A = molecular target: T2, Streptokinase A (Streptococcus pyogenes serotype M1, UniProt P10520); experiment: viability-normalized secreted streptokinase activity reduction – plasminogen activation absorbance, OD405, dose response (AID 1914); type: functional, Streptococcus pyogenes M1 GAS;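 further: secreted streptokinase activity via plasminogen activation per viability signal from cell pellet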
T2 sequence (P10520 whole entry): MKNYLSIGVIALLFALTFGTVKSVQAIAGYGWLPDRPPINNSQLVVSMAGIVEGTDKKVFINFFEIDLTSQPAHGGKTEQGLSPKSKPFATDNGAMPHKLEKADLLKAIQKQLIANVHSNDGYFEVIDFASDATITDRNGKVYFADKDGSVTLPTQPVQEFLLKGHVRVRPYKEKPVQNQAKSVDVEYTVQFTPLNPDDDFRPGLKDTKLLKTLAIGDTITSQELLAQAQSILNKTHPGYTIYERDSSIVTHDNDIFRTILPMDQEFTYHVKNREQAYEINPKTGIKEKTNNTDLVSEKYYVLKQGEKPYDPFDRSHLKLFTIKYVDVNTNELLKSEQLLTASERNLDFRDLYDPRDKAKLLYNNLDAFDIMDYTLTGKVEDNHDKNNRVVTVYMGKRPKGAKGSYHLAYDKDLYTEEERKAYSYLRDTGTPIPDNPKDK

[10] = system: Streptococcus sp. 'group A'; experiment: Streptococcus pyogenes SK(-)GAS viability under kanamycin – luminescence, BacTiterGlo, confirmation, counter-screen for streptokinase expression inhibitor project, dose response (AID 1900); type: functional, organism-based
[11] = molecular target: Disintegrin and metalloproteinase domain-containing protein 17 (Homo sapiens, UniProt P78536); experiment: inhibition of ADAM17 substrate cleavage – biochemical, quenched FRET substrate, counter-screen for ADAM10 exosite inhibitor project, dose response (AID 743253)
Streptococcus = experiment: GAS UMAA2166 growth inhibition – luminescence, BacTiterGlo, counter-screen for streptokinase expression inhibitor project, dose response (AID 1915); type: functional, organism-based;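 further: potency for reduction of bacterial viability or growth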
H9c2 = experiment: cells; type: functional, cell-based; details: Rattus norvegicus, H9c2, Myocardium;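 further: confirmatory concentration-response retest of ultra-high-throughput screening hits for modulation of myocardial damage; cell death induced by hydrogen peroxide oxidative stress; compound pretreatment for 60 min then peroxide exposure for 2 h; potency is for protecting the cells against peroxide damage rather than for killing them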

Phospholipase A2, sequence (P04054 whole entry): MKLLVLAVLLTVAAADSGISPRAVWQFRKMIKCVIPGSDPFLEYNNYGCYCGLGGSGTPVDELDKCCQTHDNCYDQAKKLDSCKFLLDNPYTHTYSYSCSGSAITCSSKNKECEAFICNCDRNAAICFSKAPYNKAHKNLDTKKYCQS
Disintegrin and metalloproteinase domain-containing protein 17, sequence (P78536 whole entry, the tested form may be a part): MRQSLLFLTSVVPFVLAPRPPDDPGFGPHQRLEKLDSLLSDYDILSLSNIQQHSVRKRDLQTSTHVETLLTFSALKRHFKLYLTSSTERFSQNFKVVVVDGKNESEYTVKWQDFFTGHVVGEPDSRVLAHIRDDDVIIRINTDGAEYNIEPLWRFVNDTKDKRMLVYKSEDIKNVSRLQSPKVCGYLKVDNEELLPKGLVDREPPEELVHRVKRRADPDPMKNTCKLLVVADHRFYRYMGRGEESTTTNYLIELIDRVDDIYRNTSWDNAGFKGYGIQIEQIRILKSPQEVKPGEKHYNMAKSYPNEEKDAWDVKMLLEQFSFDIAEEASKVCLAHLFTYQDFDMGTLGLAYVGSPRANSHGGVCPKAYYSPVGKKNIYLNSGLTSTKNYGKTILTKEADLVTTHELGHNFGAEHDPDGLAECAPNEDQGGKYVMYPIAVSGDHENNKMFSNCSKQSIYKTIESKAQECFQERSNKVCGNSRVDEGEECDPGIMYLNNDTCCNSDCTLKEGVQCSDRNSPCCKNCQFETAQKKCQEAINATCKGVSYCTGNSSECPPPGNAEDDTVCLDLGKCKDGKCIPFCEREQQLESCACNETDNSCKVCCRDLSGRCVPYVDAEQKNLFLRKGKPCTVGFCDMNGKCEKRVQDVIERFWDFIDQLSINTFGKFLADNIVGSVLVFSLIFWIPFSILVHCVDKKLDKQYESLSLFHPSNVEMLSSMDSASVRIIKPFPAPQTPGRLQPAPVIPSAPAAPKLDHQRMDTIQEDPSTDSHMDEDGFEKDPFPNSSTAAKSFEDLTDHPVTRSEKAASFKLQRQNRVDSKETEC
FAD-linked sulfhydryl oxidase ALR, sequence (P55789 whole entry): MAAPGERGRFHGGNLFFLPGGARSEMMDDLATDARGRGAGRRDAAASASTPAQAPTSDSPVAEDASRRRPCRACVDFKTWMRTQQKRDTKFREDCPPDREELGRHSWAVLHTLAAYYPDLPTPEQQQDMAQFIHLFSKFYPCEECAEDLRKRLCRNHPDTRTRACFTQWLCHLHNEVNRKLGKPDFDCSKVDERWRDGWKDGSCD
Albumin, sequence (P02769 whole entry): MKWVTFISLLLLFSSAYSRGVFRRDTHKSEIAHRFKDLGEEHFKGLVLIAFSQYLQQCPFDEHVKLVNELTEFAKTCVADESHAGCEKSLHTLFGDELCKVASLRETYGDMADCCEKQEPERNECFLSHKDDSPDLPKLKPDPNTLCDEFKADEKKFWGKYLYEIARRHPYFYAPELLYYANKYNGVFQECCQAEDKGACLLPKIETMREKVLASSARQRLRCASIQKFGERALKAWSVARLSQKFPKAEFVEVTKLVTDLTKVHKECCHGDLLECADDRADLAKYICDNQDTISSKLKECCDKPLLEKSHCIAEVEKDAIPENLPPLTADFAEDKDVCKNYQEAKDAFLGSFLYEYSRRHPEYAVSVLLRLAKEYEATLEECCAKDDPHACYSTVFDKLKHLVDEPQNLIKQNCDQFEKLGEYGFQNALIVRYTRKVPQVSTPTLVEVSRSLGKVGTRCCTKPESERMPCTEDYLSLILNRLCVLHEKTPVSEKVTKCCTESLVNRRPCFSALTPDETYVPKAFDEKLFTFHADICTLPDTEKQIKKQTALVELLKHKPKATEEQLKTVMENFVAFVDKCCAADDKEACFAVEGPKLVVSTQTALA

In the case of COc1ccc(-c2cc(CNS(=O)(=O)c3ccc(NC(C)=O)cc3)on2)cc1, the CC50 (Vero) is reported as > 25 µM (active).

With COc1ccc(-c2cnnn2-c2ccc(NC(=O)c3ccc(S(=O)(=O)N4CCCCC4)cc3)cc2)cc1OC the IC50 (Albumin) was > 94.1 µM (inactive).

For Cc1cc(NS(=O)(=O)c2ccc(Nc3nc(-c4ccc(C)c(C)c4)cs3)cc2)no1, the IC50 (Cysteine protease ATG4B) was 13.1 µM (active) and the IC50 (Phospholipase A2) was 11.9 µM (active).

With CC(C)c1ccc(NC2CCCN(C(=O)CCN3Cc4ccccc4C3=O)C2)cc1 (stereo not given) the IC50 (Cysteine protease ATG4B) was 15.5 µM (active), the AC50 [1] was 4.43 µM (active) and the IC50 (Phospholipase A2) was 7.98 µM (active).

For COc1ccc(-c2nnc3sc(C4CCCCC4)nn23)cc1OC, the EC50 [2] was 25.6 µM (active), the EC50 (HEK293 [3]) was > 59.7 µM (inactive) and the EC50 (HEK293 [4]) was > 59.7 µM (inactive). For the same compound, the EC50 [5] was 58.6 µM (active) and the CC50 [6] was > 40 µM (active).

With COc1ccc(C(=O)C2CCCN(C(=O)c3cnsn3)C2)c(C)c1 (stereo not given) the CC50 [7] was > 40 µM (active).

With COc1ccc(C2NC3=C(CCCC3)C(C#N)(C#N)C2(C#N)C#N)cc1 (stereo not given) the EC50 [8] was > 20 µM (not active) and the EC50 [9] was > 20 µM (not active).

In the case of O=[N+]([O-])c1cc(S(=O)(=O)Nc2ccccc2)ccc1N1CCN(c2ccccc2)CC1, the CC50 (Vero) is reported as 13.5 µM (active), the EC50 (Streptokinase A) is reported as 23.9 µM (active) and the EC50 [10] is reported as 16.2 µM (active). The IC50 [11] was > 69.5 µM (inactive) and the EC50 (Streptococcus) was > 150 µM (not active).

For CCOC(=O)c1c(C)nc2sc3c(=O)n(-c4ccc(C(C)=O)cc4)cnc3c2c1-c1ccc(OC)cc1, the IC50 (H9c2) was > 79 µM (inactive).

With CCOc1cccc(CN2CCCC(C(=O)Nc3cccc(-n4cccn4)c3)C2)c1 (stereo not given) the CC50 [7] was > 40 µM (active).

For O=C(NNC(=O)c1cc(-c2ccccc2)nc2ccccc12)Nc1cccc(Cl)c1, the EC50 (Streptokinase A) was 22.4 µM (active), the EC50 [10] was 3.9 µM (active) and the IC50 [11] was > 69.5 µM (inactive). For the same compound, the EC50 (Streptococcus) was 40.2 µM (active).

With COc1cc(OC)cc(-c2nc3ccccc3c(=O)n2OC(=O)c2ccc(Br)cc2)c1 the IC50 (Cysteine protease ATG4B) was 2.51 µM (active) and the IC50 (Phospholipase A2) was 4.74 µM (active).

With COC(=O)c1ccc(N2CCC(c3cc(-c4ccc(OC)cc4)n[nH]3)CC2)c([N+](=O)[O-])c1 the EC50 (Streptokinase A) was > 150 µM (not active) and the IC50 [11] was > 69.5 µM (inactive).
